Values quoted from earlier work, collected in patent publication US4801594A, “Aromatase inhibitors” (Eli Lilly and Company, priority 1984, dated 1989).

System: breast cancer
Settings: known aromatase inhibitors; see Cancer Research, Vol. 42, Suppl. 8: 3261s (1982)

Structure (SMILES) | effect in treatment of breast cancer
CCC1(c2ccc(N)cc2)CCC(=O)NC1=O (centres unmarked) [aminoglutethimide] | beneficial effect
C[C@]12C=CC(=O)C=C1CC[C@@H]1[C@@H]2CC[C@]2(C)OC(=O)CC[C@@H]12 [testolactone] | beneficial effect
